This is an account of results in patent publication US20130164386A1, “Targeting the Alpha3 Subnit of Na+-K+-ATPase for the Treatment of Cough with Sulfenamides” (THE JOHNS HOPKINS UNIVERSITY, priority 2010, published 2013).

Like-named read-outs stand apart in the source and are kept apart here.

Series [1] has as its system citric acid evoked coughing. The class given is in vivo, guinea pig. To be noted: anesthetized guinea pigs.
The test system of series [2] is citric acid evoked coughing. In words: citric acid evoked coughing in conscious (unanesthetized) guinea pigs. The class given is in vivo, guinea pig. To be noted: 1 mg/mL, nebulized, delivered as an aerosol to the airways, listed as acid-activated omeprazole.
The test system of series [3] is Na+-K+ ATPase activity of cough receptor terminations. Nature of the series: intravital FM2-10 styryl dye labeling of cough receptor terminals in tracheal mucosa. On the set-up: species or system guinea pig. To be noted: data not shown. From the text:
FIGS. 1A-1D show: (A) selective immunohistochemical labeling of cough receptor terminations in the guinea pig tracheal mucosa with antisera to the alpha3 subunit of Na+K+-ATPase; (B) the cough receptor terminals innerating the tracheal mucosa also are brilliantly and selectively labeled intravitally by the styryl dye FM2-10. This staining method depends upon active Na+-K+ ATPase.
Mazzone, S. B, et al., “Selective Expression of a Sodium Pump Isozyme by Cough Receptors and Evidence for Its Essential Role in Regulating Cough,” J. Neurosci., 2009, 29(43):13662-13671. Thus, the cough receptors uniquely express the alpha3 subunit of the sodium pump in their peripheral terminals, and these terminals display high basal sodium pump activity based on FM2-10 fluorescence.
Referring now to FIGS. 1A-1D, it is shown that: (A) selective immunohistochemical labeling of cough receptor terminations in the guinea pig tracheal mucosa with antisera to the alpha3 subunit of Na+K+-ATPase; (B) the cough receptor terminals innerating the tracheal mucosa also are brilliantly and selectively labeled intravitally by the styryl dye FM2-10. Styryl dyes are known to produce fluorescence intensity proportional to Na+-K+-ATPase activity. Consistent with this notion, FM2-10 labeling of the cough receptor terminations is prevented by the sodium pump inhibitor ouabain (not shown). […]

The test system of series [4] is citric acid evoked coughing. Conditions: alpha3-selective concentration; cited from earlier work.
Series [5] concerns Na+-K+ ATPase activity of cough receptor terminations. To be noted: Mazzone et al., J. Neurosci. 2009; cited from earlier work.
The subject of series [6] is cough receptors. Conditions: in vitro; alpha3-selective concentration; cited from earlier work.

As to `COc1ccc2[nH]c([S+]([O-])Cc3ncc(C)c(OC)c3C)nc2c1` (stereo not shown) [omeprazole], the “citric acid evoked coughing” value is reported as “nearly abolished” in series [1] (topically applied to the tracheal mucosa, 0.1 mM, listed as acid activated omeprazole) and “markedly inhibits” in series [2].
Turning to `C[C@@H]1O[C@@H](O[C@H]2C[C@@H](O)[C@]3(CO)[C@H]4[C@H](O)C[C@]5(C)[C@@H](C6=CC(=O)OC6)CC[C@]5(O)[C@@H]4CC[C@]3(O)C2)[C@H](O)[C@H](O)[C@H]1O` [ouabain], in series [1] (dose 30 μg/kg lv), the blood pressure entry is “no effect”, the “citric acid evoked coughing” value is on record as “nearly abolished”, the heart rate result was “no effect” and the “respiratory pattern at eupnea” value is given as “no effect”. In addition, the “FM2-10 labeling of the cough receptor terminations” value in series [3] is recorded as “prevented”. Moreover, the “coughing evoked in vivo” value in series [4] is reported as “reduced substantially”. Besides, the “FM2-10 labeling of the cough receptors” value in series [5] is recorded as “prevented”. Besides, the “high frequency action potential patterning in cough receptors” value in series [6] was “reduced substantially”.
